PubChem BioAssay (NCI)
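Growth conditions: 96-well plates. Treatment: test compound, 48 hours, 5 concentrations. Analysis: linear interpolation between bracketing concentrations; unreached endpoints set to highest concentration. Here, GI50 denotes the concentration required for 50% inhibition of growth. TGI marks complete inhibition of growth.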

Key:
Assay in all cases: NCI anticancer screen, dose series, 48 h
ACHN renal = tested on: ACHN renal
COLO 205 colon = tested on: COLO 205 colon
HOP-62 NSCLC = tested on: HOP-62 NSCLC
HOP-92 NSCLC = tested on: HOP-92 NSCLC
K-562 leukemia = tested on: K-562 leukemia
SF-539 CNS = tested on: SF-539 CNS
SN12C renal = tested on: SN12C renal
UACC-257 melanoma = tested on: UACC-257 melanoma
DU-145 prostate = tested on: DU-145 prostate
RXF 393 renal = tested on: RXF 393 renal

## COc1ccc(OC(=O)CC2Cc3cc(OC)c(OC)c(OC)c3-c3ccc(SC)c(=O)cc32)cc1 (stereo unspecified)
ACHN renal
  TGI: > 57.7 µM
COLO 205 colon
  TGI: > 100 µM
HOP-62 NSCLC
  TGI: > 39 µM
HOP-92 NSCLC
  TGI: 9.05 µM
K-562 leukemia
  TGI: > 100 µM
SF-539 CNS
  TGI: 0.54 µM
SN12C renal
  TGI: > 71.8 µM
UACC-257 melanoma
  TGI: > 54.2 µM

## CCCCNc1nc(NC2OCC(OC(C)=O)C(OC(C)=O)C2OC(C)=O)c(N=O)c(=O)n1C (stereo unspecified)
ACHN renal
  TGI: > 10 µM
COLO 205 colon
  TGI: > 10 µM
DU-145 prostate
  TGI: > 10 µM
HOP-62 NSCLC
  TGI: > 10 µM
HOP-92 NSCLC
  TGI: > 10 µM
RXF 393 renal
  TGI: > 10 µM
SF-539 CNS
  TGI: > 10 µM
SN12C renal
  TGI: > 10 µM
UACC-257 melanoma
  TGI: > 10 µM

## O=C1c2ccccc2N2OC3(N4CCCC4)CCCCC3C12c1ccccc1 (stereo unspecified)
ACHN renal
  TGI: 43.8 µM
COLO 205 colon
  TGI: 31 µM
HOP-62 NSCLC
  TGI: > 100 µM
HOP-92 NSCLC
  TGI: 29.7 µM
K-562 leukemia
  TGI: 59.8 µM
RXF 393 renal
  TGI: 39.4 µM
SF-539 CNS
  TGI: 80.5 µM
SN12C renal
  TGI: 30.5 µM
UACC-257 melanoma
  TGI: 45.6 µM

## C[C@@H]1O[C@@H](O[C@@H]2[C@@H](O)[C@H](OCCc3ccc(O)c(O)c3)O[C@H](CO)[C@H]2OC(=O)/C=C/c2ccc(O)c(O)c2)[C@H](O)[C@H](OC2OC[C@](O)(CO)[C@H]2O)[C@H]1O (stereo partly specified)
ACHN renal
  GI50: > 100 µM
  TGI: > 100 µM
COLO 205 colon
  GI50: > 100 µM
  TGI: > 100 µM
DU-145 prostate
  GI50: 16.9 µM
  TGI: 48 µM
HOP-62 NSCLC
  GI50: > 100 µM
  TGI: > 100 µM
K-562 leukemia
  GI50: 58.5 µM
  TGI: > 100 µM
RXF 393 renal
  GI50: 72 µM
  TGI: > 100 µM
SF-539 CNS
  GI50: > 100 µM
  TGI: > 100 µM
SN12C renal
  GI50: > 100 µM
  TGI: > 100 µM
UACC-257 melanoma
  GI50: 27 µM
  TGI: 90.1 µM

## O=C1C=C(O)C(=Cc2c(O)cc(O)cc2O)C(O)=C1
COLO 205 colon
  TGI: > 100 µM
HOP-62 NSCLC
  TGI: > 100 µM
HOP-92 NSCLC
  TGI: > 100 µM
K-562 leukemia
  TGI: > 100 µM
RXF 393 renal
  TGI: > 100 µM
SF-539 CNS
  TGI: > 100 µM
SN12C renal
  TGI: > 100 µM
UACC-257 melanoma
  TGI: > 100 µM

## Cc1ccc(NC(=O)C(=O)C(C(=O)/C=C/c2ccccc2)C2OC(=O)c3ccccc32)c(C)c1 (stereo unspecified)
ACHN renal
  TGI: > 100 µM
COLO 205 colon
  TGI: > 100 µM
HOP-62 NSCLC
  TGI: > 100 µM
HOP-92 NSCLC
  TGI: > 100 µM
K-562 leukemia
  TGI: > 100 µM
RXF 393 renal
  TGI: > 100 µM
SF-539 CNS
  TGI: > 100 µM
SN12C renal
  TGI: > 100 µM
UACC-257 melanoma
  TGI: > 100 µM

## ClC1=C(Cl)C(Cl)(Cl)c2c3c(c4c(c21)C(Cl)(Cl)C(Cl)=C4Cl)C(Cl)(Cl)C(Cl)=C3Cl
ACHN renal
  TGI: > 100 µM
COLO 205 colon
  TGI: > 100 µM
HOP-62 NSCLC
  TGI: > 100 µM
K-562 leukemia
  TGI: > 100 µM
SF-539 CNS
  TGI: > 100 µM
SN12C renal
  TGI: > 100 µM
UACC-257 melanoma
  TGI: > 100 µM

## CC(C)(C)c1cc2nc(c1)C(C(F)(F)F)(C(F)(F)F)OB(Br)OC2(C(F)(F)F)C(F)(F)F
COLO 205 colon
  TGI: 0.364 µM
HOP-62 NSCLC
  TGI: 3.14 µM
K-562 leukemia
  TGI: 10 µM
RXF 393 renal
  TGI: 22 µM
SF-539 CNS
  TGI: 7.31 µM
SN12C renal
  TGI: 7.26 µM
UACC-257 melanoma
  TGI: 0.188 µM

## Fc1ccc(/C=N/n2c(-c3ccc(F)c(Cl)c3)n[nH]c2=S)cc1
COLO 205 colon
  GI50: 37.3 µM
  TGI: > 100 µM
DU-145 prostate
  GI50: 41.5 µM
  TGI: > 100 µM
HOP-62 NSCLC
  GI50: 16.7 µM
  TGI: 31.4 µM
HOP-92 NSCLC
  GI50: 15.1 µM
  TGI: 34.6 µM
K-562 leukemia
  GI50: 19.3 µM
  TGI: 36.6 µM
RXF 393 renal
  GI50: 21.2 µM
  TGI: 39.9 µM
SF-539 CNS
  GI50: 32 µM
  TGI: > 100 µM
UACC-257 melanoma
  GI50: 30.6 µM
  TGI: 83 µM

## COc1ccc(NC(=O)C(=O)/C=C(\O)c2ccccc2)cc1
COLO 205 colon
  TGI: > 10 µM
DU-145 prostate
  TGI: > 10 µM
HOP-62 NSCLC
  TGI: > 10 µM
HOP-92 NSCLC
  TGI: > 10 µM
K-562 leukemia
  TGI: > 10 µM
RXF 393 renal
  TGI: > 10 µM
SN12C renal
  TGI: > 10 µM
UACC-257 melanoma
  TGI: > 10 µM

## COc1cc(C(=O)Nc2cc(O)c(CC=C(C)C)c(O)c2)cc2c1O[C@]1(C)CC[C@@H](O)C(C)(C)[C@H]1C2
ACHN renal
  GI50: 1.78 µM
  TGI: 24.3 µM
COLO 205 colon
  GI50: 1.37 µM
  TGI: 7.98 µM
DU-145 prostate
  GI50: 1.87 µM
  TGI: 21.7 µM
HOP-62 NSCLC
  GI50: 0.46 µM
  TGI: 8.81 µM
RXF 393 renal
  GI50: 0.0345 µM
  TGI: 2.89 µM
SF-539 CNS
  GI50: 0.0391 µM
  TGI: 1.51 µM
SN12C renal
  GI50: 8.12 µM
  TGI: 60.2 µM
UACC-257 melanoma
  GI50: 0.0989 µM
  TGI: 13.1 µM

## O=c1c2cc(F)ccc2sc2c(NCCCNCCO)nc3ccccc3c12
ACHN renal
  GI50: 1.67 µM
  TGI: 3.03 µM
COLO 205 colon
  GI50: 2.08 µM
  TGI: 4.66 µM
DU-145 prostate
  GI50: 1.72 µM
  TGI: 3.13 µM
HOP-62 NSCLC
  GI50: 1.77 µM
  TGI: 3.69 µM
HOP-92 NSCLC
  GI50: 1.23 µM
  TGI: 3.14 µM
RXF 393 renal
  GI50: 1.49 µM
  TGI: 2.9 µM
SF-539 CNS
  GI50: 1.74 µM
  TGI: 3.19 µM
SN12C renal
  GI50: 1.67 µM
  TGI: 3.17 µM
UACC-257 melanoma
  GI50: 1.98 µM
  TGI: 3.94 µM

## Cc1cc(=O)c2c(O)cc3c(c2o1)CC=C(COC1OC(COC2OC(CO)C(O)C(O)C2O)C(O)C(O)C1O)CO3 (stereo unspecified)
ACHN renal
  TGI: > 100 µM
COLO 205 colon
  TGI: > 100 µM
HOP-62 NSCLC
  TGI: > 100 µM
HOP-92 NSCLC
  TGI: > 100 µM
K-562 leukemia
  TGI: > 100 µM
SF-539 CNS
  TGI: > 100 µM
SN12C renal
  TGI: > 100 µM
UACC-257 melanoma
  TGI: > 100 µM

## N#CC1(C#N)C(c2ccccc2)C=CC12OCCCO2 (stereo unspecified)
ACHN renal
  TGI: > 100 µM
COLO 205 colon
  TGI: 93.6 µM
HOP-62 NSCLC
  TGI: > 100 µM
HOP-92 NSCLC
  TGI: > 100 µM
K-562 leukemia
  TGI: > 100 µM
RXF 393 renal
  TGI: 49.2 µM
SF-539 CNS
  TGI: 45.9 µM
SN12C renal
  TGI: > 100 µM
UACC-257 melanoma
  TGI: > 100 µM

## c1ccc2c(c1)CCc1c-2n[nH]c1-c1[nH]nc2c1CCc1ccccc1-2
ACHN renal
  TGI: > 100 µM
COLO 205 colon
  TGI: > 100 µM
HOP-62 NSCLC
  TGI: > 100 µM
HOP-92 NSCLC
  TGI: > 100 µM
K-562 leukemia
  TGI: > 100 µM
SF-539 CNS
  TGI: > 100 µM
SN12C renal
  TGI: > 100 µM
UACC-257 melanoma
  TGI: > 100 µM

## CCOC(=O)/C(I)=C/c1cc(OC)c(OC)c(OC)c1
ACHN renal
  TGI: 28.2 µM
COLO 205 colon
  TGI: 18.2 µM
HOP-62 NSCLC
  TGI: 96.1 µM
HOP-92 NSCLC
  TGI: 27.1 µM
K-562 leukemia
  TGI: > 100 µM
SF-539 CNS
  TGI: > 100 µM
SN12C renal
  TGI: 24.6 µM
UACC-257 melanoma
  TGI: 25.7 µM

## CC(CO)(Nc1ccc([N+](=O)[O-])cc1[N+](=O)[O-])C(=O)O (stereo unspecified)
ACHN renal
  TGI: 32.7 µM
COLO 205 colon
  TGI: 32.8 µM
DU-145 prostate
  TGI: 48.9 µM
HOP-62 NSCLC
  TGI: > 100 µM
K-562 leukemia
  TGI: 38.6 µM
RXF 393 renal
  TGI: 24.6 µM
SF-539 CNS
  TGI: 91.1 µM
SN12C renal
  TGI: 39.4 µM
UACC-257 melanoma
  TGI: 69.2 µM

## O=C(Cc1nc2ccccc2o1)C(=O)Nc1cccc(C(F)(F)F)c1
ACHN renal
  TGI: > 100 µM
COLO 205 colon
  TGI: > 100 µM
HOP-62 NSCLC
  TGI: > 100 µM
HOP-92 NSCLC
  TGI: > 100 µM
K-562 leukemia
  TGI: > 100 µM
SF-539 CNS
  TGI: > 100 µM
SN12C renal
  TGI: > 100 µM
UACC-257 melanoma
  TGI: > 100 µM

## COc1cccc(C2c3cc4c(cc3OC3COC(=O)C32)OCO4)c1OC (stereo unspecified)
ACHN renal
  TGI: > 100 µM
COLO 205 colon
  TGI: > 100 µM
DU-145 prostate
  TGI: > 100 µM
HOP-62 NSCLC
  TGI: > 100 µM
HOP-92 NSCLC
  TGI: > 100 µM
RXF 393 renal
  TGI: > 100 µM
SF-539 CNS
  TGI: > 100 µM
SN12C renal
  TGI: > 100 µM
UACC-257 melanoma
  TGI: > 100 µM

## N[C@H](COCc1ccccc1)c1ccccc1
ACHN renal
  TGI: > 91.4 µM
COLO 205 colon
  TGI: 29.2 µM
HOP-62 NSCLC
  TGI: > 74.5 µM
HOP-92 NSCLC
  TGI: 62 µM
K-562 leukemia
  TGI: 87.2 µM
RXF 393 renal
  TGI: > 72.6 µM
SF-539 CNS
  TGI: 75.1 µM
SN12C renal
  TGI: > 81.6 µM
UACC-257 melanoma
  TGI: > 81.1 µM
